For the series, the system named is IMQ induced psoriasis. As to the method: Test Item Details • 1. Dexamethasone Cat. or Batch no.: BCBM4557V (sigma) • Vehicle for dexamethasone (Veh.1): acetone:ethanol (1:1) • Dose: 0.1 mg/ear & 0.25 mg in back skin • Dose volume: 20 μL/ear & 50 μL on back skin • 2. Crisaborole: PZ0037 (Sigma) • Vehicle (Veh.1): acetone:ethanol (1:1) • Dose: 0.1 mg/ear & 0.25 mg in back skin • Dose volume: 20 μL/ear, 50 μL on back skin • 3. Compound of Formula (I) • Vehicle (Veh.1): acetone:ethanol (1:1) • Dose: 0.1 mg/ear & 0.25 mg in back skin • Dose volume: 20 μL/ear, 50 μL on back skin Dexamethasone and Test Item Preparation and Application: • Strength=5 mg/ml
Application=100 μg/20 pit per each ear+250 μg/50 μL on the back G2 to G4 receive Dexamethasone, Crisaborole or test item: Daily topical treatment (D0-D6): 0.1 mg in 20 μl per ear x both the ears+0.25 mg in 50 μl (on the back) 6-8 hrs after IMQ application.
Disease Induction: Application of 5% IMQ cream 40 mg (back) and 5 mg (per ear—Inner surface) daily from day 0-6.
Treatment: 0.5% Dexamethasone solution: 0.25 mg (back) and 0.1 mg (per ear) 8 hrs post IMQ. • Day −2—Depilation on back region • Day 0—Observations (Body weight; ear thickness using digital microcaliper) • Day 2—Observations (Body weight; ear thickness using digital microcaliper) • Day 4—Observations (Body weight; ear thickness using digital microcaliper) • Day 6—Observations (Body weight; ear thickness using digital microcaliper); Blood collection (PK) and Termination {2 hrs after last dose) • Ear collection: PK, Cytokine, MPO, Thickness • Back skin collection, scoring and thickness measurement • Histopathology (optional)
The dorsal posterior area (2 cm×2 cm) of animals is depilated using a hair trimmer. 5% Imiquimod cream: 50 mg/animal (40 mg on the shaved back+5 mg each on the inner part of right and left ear) QD is applied on days 0 to 5 (Groups 1-4).
The body weight is recorded individually for all animals at receipt, day of randomization, prior to treatment, and once in two days thereafter. The animals are observed for mortality at regular intervals.
2 hrs post compound treatment on day 6, all the animals are euthanized, and ear tissues are collected. The right ear is flash frozen in liquid nitrogen and stored at −80° C. until homogenization for MPO and cytokine estimation.
The half of the left ear is used for drug concentration measurement. The other half of the left ear tissue is used for histopathology. The back skin is collected for visual assessment (scoring) and histopathology.
MPO analysis: Snap frozen ear tissue samples are homogenized in 1× assay buffer provided in the kit. The homogenates are centrifuged at 8000 g for 10 minutes in a refrigerated centrifuge. The supernatants are discarded, and the pellet is resuspended in solubilisation buffer (1× assay buffer containing 0.5% HTABr). The samples are homogenized and subjected to three rounds of freeze thaw followed by brief sonication for 10s. The samples are centrifuged at 12,000 g for 10 minutes in a refrigerated centrifuge and the resulting supernatants are analysed for MPO levels based on a fluorometric detection kit. The Kit utilizes a non-fluorescent detection reagent, which is oxidized in the presence of hydrogen peroxide and MPO to produce its fluorescent analogue. (Enzo Life Sciences; ADI-907-029).
Histopathology: At study termination, posterior dorsal skin and ear skin samples are collected. Skin samples are processed using routine histopathological methods and 4-5 μm paraffin sections are prepared. Tissue sections (3 serial sections/animal) are stained with Hematoxylin and eosin (H&E) to evaluate acanthosis, hyper/parakeratosis and inflammatory cellular infiltration in dermis. Severity of lesions are assessed semi quantitatively on a scale of 0-4 by two independent pathologists (0—normal, 1—mild degree, 2—moderate degree, 3—severe degree and 4—extensive or multiple locations) for each parameter in a blinded manner.

Take `N#Cc1ccc(Oc2ccc3c(c2)COB3O)cc1` [Crisaborole, reference compound]: the “MPO activity in ear tissue homogenates” value (day 6, topical 0.5%, vs IMQ control) is on record as “do not show significant inhibition”. Further, where the note is “day 6 at termination, topical 0.5%, vs IMQ control”, the Back skin thickness entry is on record as “do not show significant reduction”. The “Cumulative clinical scores (erythema, skin thickness, scales)” value (topical 0.5%, back skin, maximum score 12, vs IMQ control) is listed as “significant reduction in the cumulative clinical scores on day 6”. For the same compound, the Ear thickness entry (topical 0.5%, daily, vs IMQ control) is on record as “significant reduction in ear thickness on day 6”. In addition, the “Overall cumulative HP scores of ear skin” value (topical 0.5%, maximum score 16, vs IMQ control) is on record as “significant reduction”. Also, the “Spleen weight or normalized spleen weight” value (topical 0.5%, vs IMQ control) is on record as “do not show significant reduction”. Also, the “Cytokine levels in ear tissue homogenates” value (topical treatment, vs IMQ control) was “significant reduction in few of the proinflammatory cytokines”.

With `C[C@@H]1C[C@H]2[C@@H]3CCC4=CC(=O)C=C[C@]4(C)[C@@]3(F)[C@@H](O)C[C@]2(C)[C@@]1(O)C(=O)CO` [Dexamethasone, reference compound], the “Body weight / body weight loss” value (mouse, in vivo) was “significant body weight loss”.

(Values after patent US12622915B2, “Methods of treating PDE IV-mediated diseases or conditions” (Vanda Pharmaceuticals Inc., priority 2020, dated 2026).)
